These results are taken from ChEMBL document CHEMBL1135317, “Halogenated indole-3-acetic acids as oxidatively activated prodrugs with potential for targeted cancer therapy” (2002).

System in one assay: not listed separately
The assay is described as follows: Rate constant for oxidation by HRP (horseradish peroxidase) was determined.
Regarding `COc1ccc2[nH]c(C)c(CC(=O)O)c2c1` [DESCHLOROBENZOYL INDOMETHACIN], the Rate constant (k) was 1710 Ie3 M-1 s-1. Take `Cc1[nH]c2ccccc2c1CC(=O)O`: the Rate constant (k) is 435 Ie3 M-1 s-1. `O=C(O)Cc1c[nH]c2ccc(-c3ccc(Cl)cc3)cc12`: the Rate constant (k) was 103 Ie3 M-1 s-1.

The next assay relates to V79. Briefly: Cytotoxicity against Chinese hamster lung fibroblasts (V79 cells) was determined by a clonogenic assay (colonies containing >50 cells were counted and surviving fractions (SF) calculated after 2 hr incubation). The format is functional, Cricetulus griseus.
Consider `O=C(O)Cc1c[nH]c2ccc(OC(F)(F)F)cc12`, for which the Surviving fraction is on record as 1. With `Cc1[nH]c2ccc(F)cc2c1CC(=O)O`, the Surviving fraction is 1.

For `Cc1ccc(F)c2[nH]cc(CC(=O)O)c12`, the Surviving fraction is reported as 1. For `Cc1ccc2[nH]cc(CC(=O)O)c2c1`, the Surviving fraction was 1. With `O=C(O)Cc1c[nH]c2cc(Cl)cc(Cl)c12`, the Surviving fraction was 1. The same measure, in the same setting: next, `COc1ccc2[nH]c(C)c(CC(=O)O)c2c1` [DESCHLOROBENZOYL INDOMETHACIN]: 0.04; `Cn1cc(CC(=O)O)c2cc(F)ccc21`: 1; `O=C(O)Cc1c[nH]c2c(Cl)cccc12`: 4e-05.

Turning to `O=C(O)Cc1c[nH]c2ccccc12` [INDOLE-3-ACETIC ACID], the Surviving fraction is reported as 0.01. Take `Cc1cc(F)c2[nH]cc(CC(=O)O)c2c1`: the Surviving fraction was 1. In the case of `O=C(O)Cc1c[nH]c2cc(F)ccc12`, the Surviving fraction is recorded as 0.01. With `O=C(O)Cc1c[nH]c2ccc(Cl)cc12`, the Surviving fraction is reported as 0.003. Turning to `Cn1cc(CC(=O)O)c2ccccc21`, the Surviving fraction is listed as 0.01. As to `O=C(O)Cc1c[nH]c2c(F)cc(Cl)cc12`, the Surviving fraction is 1. Regarding `O=C(O)Cc1c[nH]c2cc(Cl)ccc12`, the Surviving fraction is listed as less than 1e-05. `O=C(O)Cc1c[nH]c2ccc(-c3ccccc3)cc12`: the Surviving fraction is 1. On the same count and under the same terms, next, `O=C(O)Cc1c[nH]c2ccc(F)cc12`: less than 1e-05. Regarding `COc1ccc2[nH]cc(CC(=O)O)c2c1`, the Surviving fraction is 0.2. Turning to `O=C(O)Cc1c[nH]c2cccc(Cl)c12`, the Surviving fraction was 1. Consider `Cc1[nH]c2ccccc2c1CC(=O)O`, for which the Surviving fraction is on record as 0.004. As for `O=C(O)Cc1c[nH]c2ccc(I)cc12`, the Surviving fraction is on record as 1. With `O=C(O)Cc1c[nH]c2cccc(F)c12`, the Surviving fraction was 9e-05. In the case of `O=C(O)Cc1c[nH]c2ccc(-c3ccc(Cl)cc3)cc12`, the Surviving fraction is given as 1. As to `Cn1cc(CC(=O)O)c2ccc(Cl)cc21`, the Surviving fraction is 1.

The next assay concerns V79. Briefly: Cytotoxicity against Chinese hamster lung fibroblasts (V79 cells) was determined by a clonogenic assay and colonies containing >50 cells were counted and surviving fractions (SF) calculated after 2 h incubation at 50 uM of prodrug. The format is functional, Cricetulus griseus.
For `O=C(O)Cc1c[nH]c2cc(Cl)ccc12`, the Surviving fraction is on record as 0.00085.
